Test results: US20070275935A1, “Estratriene Derivatives” (priority 2003, published 2007)
Read-outs that look alike come from different tables or passages of the source.

How the values were obtained:
[1] = tested on: Human airway smooth muscle (HASM) cells; experiment: Thrombin-induced proliferation of human airway smooth muscle (HASM) cells, cell number after 48 h; format: cell-based; conditions: for IC50: Homo sapiens, read-out: HASM-Thr pIC50 (converted); for HASM- Thr pIC25 / HASM- Thr pIC75: two site model, thrombin-induced proliferation; for HASM- Thr pIC25: first phase (inhibition up to 50%); for HASM- Thr pIC75: second phase (inhibition up to 100%)
Experimental: Human airway smooth muscle (HASM) cells were cultured from macroscopically normal bronchi (0.5-2 cm diameter) obtained from lung resection or heart-lung transplant specimens provided by the Alfred Hospital (Melbourne) according to methods published in detail previously (Fernandes et al., 1999).
Approximately 0.1 g of smooth muscle was stripped from the wall of the bronchus for each cell culture. Dissected tissue was immersed in Dulbecco's modified Eagle's medium (DMEM) (Flow Laboratories, Scotland), supplemented with 100 U/mL penicillin G (CSL, Australia) and 100 ug/mL streptomycin (CSL, Australia). The tissue was rinsed in phosphate buffered saline (PBS; Oxoid, England) and the airway smooth muscle was chopped into 2 mm^3 pieces and digested for 2 hours in DMEM containing elastase (0.5 mg/mL: Worthington Biochemical, USA) followed by a 12 hour incubation in DMEM containing collagenase (1 mg/mL) (Worthington Biochemical, USA), at 37° C. with agitation.
The resulting cell suspension was centrifuged and washed three times in phosphate buffered saline (PBS). Following the last centrifugation step, the cells were resuspended in 25 mL of DMEM supplemented with L-glutamine (2 mM: Sigma, USA), penicillin G (100 U/mL), streptomycin (100 μg/mL), amphotericin B (2 μg/mL: Wellcome, UK) and heat-inactivated FCS (10% v/v: CSL, Australia) and seeded into 25 cm^2 culture flasks. The primary isolates were incubated for 7 to 14 days to reach confluence.
Cells were harvested weekly by 10 min exposure to trypsin (0.5%: CSL, Australia) and EDTA (1 mM in PBS: BDH, Australia) and passaged at a 1:3 ratio into 75 cm^2 flasks.
The activity of the compounds has been established in cell culture by exploring their effects on mitogen-induced increases in cell number. We investigated the effects of 2MEO and its analogues, 4NO and 4NOM, on the proliferation of HASM cells in response to the proliferative stimulus of either thrombin of basic fibroblast growth factor (bFGF). Cells were seeded onto 6-well plates at a density of 1.5×10^4 cells cm^2, made quiescent by removal of serum-containing media for 24 hours and then stimulated for 48 h with either thrombin (0.3 U/ml) or bFGF (300 pM). The test compounds were pre-incubated with HASM cells for 30 minutes before the addition of thrombin. At the end of the 48 hour incubation period, cells were detached from the culture plate by trypsin (0.5% w/v in PBS containing 1 mM EDTA), incubated for 5 minutes at ambient temperature in PBS containing 0.5% (w/v) trypan blue, washed twice (2% FCS in PBS), isolated by centrifugation (12,000×g, 5 min) and resuspended in 200 μl 2% FCS in PBS for counting in a haemocytometer chamber.
Data are expressed as a percentage of the cell number in vehicle treated wells and are presented as the mean and standard error of the mean.
The potency of the compounds in regulating thrombin-induced proliferation of human airway smooth muscle (HASM) was assessed in cells maintained in culture as described above. The potencies are presented as pIC50 values (Column A of Table 4) denoting the negative log of the concentration that reduces the proliferative response by 50%. […] When the single phase model was determined to be more appropriate, the values of pIC25 and pIC75 were not calculated or shown in the table.

Estrogen Receptor (ER) = biological target: T1, Estrogen Receptor (ER) (Rattus norvegicus, UniProt P06211); experiment: Estrogen receptor binding assay, 3H-estradiol displacement from rat uterine cytosol; conditions: 3H-estradiol displacement, cytosolic preparations of rat uterus; pIC50 of 4.00 = inactive; read-out: ER-RLB pIC50 (converted)
T1 construct: using rat uterine cytosol as a source of ER; from tissue; host or cells: rat uterus, cytosol fraction (30000 x g supernatant)
T1 sequence (P06211 1-600): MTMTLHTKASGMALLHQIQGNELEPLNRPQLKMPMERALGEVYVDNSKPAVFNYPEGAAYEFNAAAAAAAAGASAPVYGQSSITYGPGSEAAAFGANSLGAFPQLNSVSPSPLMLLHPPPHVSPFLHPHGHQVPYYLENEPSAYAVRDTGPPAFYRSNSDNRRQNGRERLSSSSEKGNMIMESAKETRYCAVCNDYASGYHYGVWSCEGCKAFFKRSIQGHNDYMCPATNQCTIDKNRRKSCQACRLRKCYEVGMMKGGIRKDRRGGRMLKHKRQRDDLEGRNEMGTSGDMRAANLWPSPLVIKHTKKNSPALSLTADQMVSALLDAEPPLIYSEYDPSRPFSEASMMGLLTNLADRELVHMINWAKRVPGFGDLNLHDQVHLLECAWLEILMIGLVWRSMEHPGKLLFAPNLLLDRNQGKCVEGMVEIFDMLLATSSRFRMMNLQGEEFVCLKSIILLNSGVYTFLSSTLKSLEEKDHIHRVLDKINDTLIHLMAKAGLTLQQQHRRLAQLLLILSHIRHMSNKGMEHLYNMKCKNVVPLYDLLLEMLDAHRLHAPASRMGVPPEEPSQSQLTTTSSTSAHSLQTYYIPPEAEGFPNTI
Experimental: Uteri (6-10 per batch) were isolated from Brown Norway rats (250-350g), washed free from blood in saline and homogenised in 10 mM Tris buffer (pH 7.4, 1.5 mM EDTA, 10% w/v glycerol, 1 mM phenylmethylsulfonylfluoride) using an Ultra Turrax homogeniser for 3 by 15 s bursts with intervals of 1 min on ice.
Nuclear material and cellular debris were removed by centrifugation at 750×g at 4° C. for 10 min (Sorvall RT7); the cytosol component was prepared by centrifugation at 30000×g for 120 min at 4° C. in a Beckman JM1 centrifuge. The cytosol was diluted to approximately 1 mg/ml protein (rat uterine extract) determined using the Bradford method (Biorad).
Separation of bound from free radioligand was achieved by the addition of 500 μL of dextran-coated charcoal (400 mg dextran clinical grade C and 2g of charcoal, Norit A in 100 mL of Tris buffer) and centrifugation at 4° C. in a Sorval RT7 at 2000×g for 10 min.

[2] = tested on: human breast tumour cell line, MCF7; experiment: Proliferation of MCF7 cells in response to 5% FCS or EGF; format: cell-based; conditions: Homo sapiens, MCF7; proliferation in response to 5% FCS; pIC50 of 4.00 = inactive
Experimental: (§1) The effects of 4NO were evaluated in a number of non-smooth muscle cell types including the type II airway epithelial cell line, A549 (ATCC accession number ATCC CCL-185 Lung carcinoma human) (FIG. 2); the human breast tumour cell line, MCF7, (ATTC accession number ATCC HTB-22 breast adenocarcinoma, human) which expresses the estrogen receptor (FIG. 3); and in bovine aortic endothelial cells (BAEC) (FIG. 4).
(§2) The effects of test compounds were examined on proliferation of A549 cells in response to 5% fetal calf serum (FCS). Analogues were pre-incubated with A549 cells for 30 min before the addition of FCS. The incubation continued for 48 h before cell enumeration. Data are expressed as a percentage of the cell number in vehicle treated wells and are presented as the mean and standard error of the mean. Similarly the effects of 2MEO and 4NO on proliferation of MCF7 in response to 5% FCS or epidermal growth factor (EGF, 300 pM) were examined, as were the effects of 2MEO and 4NO on proliferation of BAEC in response to 5% FCS. The incubation parameters were the same as described above and results are presented as the mean and standard error of the mean.
(§3) This assay was also used to evaluate the ability of other compounds to inhibit the proliferation of non-smooth muscle cells MCF7 and A549 (described above) in response to 5% FCS. The results of this assay are presented in Table 4 (columns G and H respectively). The potency of the compounds was considerably less in inhibiting proliferation of these cell lines than it was for HASM. These observations support the contention that there are cell type-specific targets for the actions of these compounds. Such assays may also be adopted to examine the effect of other disclosed compounds on these cells or on other non-smooth muscle cells of interest.

Pulmonary fibroblasts = experiment: bFGF-induced proliferation of human pulmonary fibroblasts; format: cell-based; conditions: inhibition of bFGF (300 pM)-induced proliferation, mean and SEM, minimum 3 experiments; 1 μM; * not defined
Experimental: Samples of parenchyma from human lung transplant recipients were dissected away from the pleura, chopped into fragments of less than 1 mm^2 and allowed to adhere to plastic culture dishes in a minimal volume of DMEM containing serum (10%) and antibiotics (as used for HASM culture). After the tissue fragments had adhered to the base of the dish additional medium was added. Medium was changed twice weekly until an explant culture formed, at which time the tissue fragments were removed and the cells were passaged in a 1:3 split ratio by exposure to trypsin weekly to produce pulmonary fibroblast cultures.
Pulmonary fibroblasts were cultured in DMEM, serum-deprived for 24 h, in the presence or absence of the test compounds, and then stimulated with 300 pM bFGF for 48 h before harvest and counting of viable cells. An increase pulmonary fibroblast cell number was prevented by 4NOM over the concentration range of 1 to 1000 nM.
A range of the disclosed compounds was subsequently examined using the above assay system, and the results are summarized in Column E of Table 4. […] The proliferation of parenchymal fibroblasts is important in the development of pulmonary fibrosis.

[3] = tested on: type II airway epithelial cell line, A549; experiment: Proliferation of A549 cells in response to 5% FCS; format: cell-based, human; conditions: Homo sapiens
Experimental: as §1, §2, §3

[4] = tested on: GM-CSF production by Human Airway Smooth Muscle Cells; experiment: Interleukin-1α-mediated GM-CSF production by HASM cells (ELISA); format: cell-based; conditions: inhibition of interleukin-1α (1 ng/ml)-mediated GM-CSF production; concentration not given; * not defined
[5] = negative log of the concentration that reduces the thrombin-induced proliferative response by 50%, pIC50 of 4.00 = inactive
[6] = A549, proliferation in response to 5% FCS, pIC50 of 4.00 = inactive, read-out: A549 PIC50 (converted)

SMILES: C[C@]12CC[C@@H]3c4ccc(O)cc4CC[C@H]3[C@@H]1CC/C2=N\OCc1ccc([N+](=O)[O-])cc1 [CP-DM-3-101, estrone-17-(4-nitrobenzyl)oxime]
- IC50 [1, 5]: 1.91 µM
- HASM- Thr pIC25 [1]: 6.27
- HASM- Thr pIC75 [1]: 5.06
- IC50 (Estrogen Receptor (ER)): 2.4 µM
- IC50 [2]: 12.6 µM

SMILES: COc1cc2c(cc1O)CC[C@@H]1[C@@H]2CC[C@]2(C)/C(=N/OCc3cccc([N+](=O)[O-])c3)CC[C@@H]12 [CP-DM-3-104, 2-methoxyestrone-17-(3-nitrobenzyl)oxime]
- IC50 [1, 5]: 0.55 µM
- HASM- Thr pIC25 [1]: 7.16
- HASM- Thr pIC75 [1]: 5.02
- IC50 [2]: 8.51 µM

SMILES: COc1cc2c(cc1O)/C(=N/Nc1ccc([N+](=O)[O-])cc1[N+](=O)[O-])C[C@@H]1[C@@H]2CC[C@]2(C)/C(=N/O)CC[C@@H]12 [CP-DM-3-119, 2-methoxy-6-(2,4-dinitrophenylhydrazono)estrone-17-oxime]
- IC50 [1]: 3.31 µM
- pFib - bFGF (Pulmonary fibroblasts): 17 ± 14
- IC50 ([3]; A549, read-out: A549 PIC50): 15.8 µM

SMILES: COc1ccc(CO/N=C2\C[C@@H]3[C@H](CC[C@]4(C)/C(=N/O)CC[C@@H]34)c3cc(OC)c(O)cc32)cc1 [CP-DM-4-6, 2-methoxy-6-(4-methoxybenzyloxy)-iminoestrone-17-oxime]
- IC50 [1, 5]: 0.117 µM
- HASM- Thr pIC25 [1]: 9.57
- HASM- Thr pIC75 [1]: 4.94
- HASM - GM-CSF [4]: 28 ± 10*
- IC50 (Estrogen Receptor (ER)): 45.7 µM
- IC50 [2]: 2.29 µM
- IC50 [3, 6]: 7.76 µM

SMILES: COc1cc2c(cc1O)/C(=N/OCc1ccncc1)C[C@@H]1[C@@H]2CC[C@]2(C)/C(=N/O)CC[C@@H]12 [CP-DM-4-15, 2-methoxy-6-(4-pyridylmethyloxy)iminoestrone-17-oxime]
- IC50 [1, 5]: 3.39 µM
- HASM - GM-CSF [4]: 34 ± 11*
- IC50 (Estrogen Receptor (ER)): 12.6 µM
- IC50 [2]: 10 µM

SMILES: COc1ccc(CO/N=C2\CC[C@H]3[C@@H]4CCc5cc(O)ccc5[C@H]4CC[C@]23C)cc1 [CP-DM-4-33, estrone-17-(4-methoxybenzyl)oxime]
- IC50 [1, 5]: 1.35 µM
- HASM- Thr pIC25 [1]: 7.12
- HASM- Thr pIC75 [1]: 5.03
- IC50 (Estrogen Receptor (ER)): 0.11 µM
- IC50 [2]: 3.16 µM
- IC50 [3, 6]: 9.12 µM

SMILES: COc1ccc(CON=C2CCC3C4CCc5cc(O)c(OC)cc5C4CCC23C)cc1 (centres unmarked) [CP-DM-4-34, 2-methoxyestrone-17-(4-methoxybenzyl)oxime]
- HASM- Thr pIC25 [1]: 4.00
- HASM- Thr pIC75 [1]: 4.00
- HASM - GM-CSF [4]: 29 ± 12
- IC50 (Estrogen Receptor (ER)): 40.7 µM
- IC50 [2]: 4.07 µM
- IC50 [3, 6]: 2.14 µM

SMILES: CO/N=C1\CC[C@H]2[C@@H]3C/C(=N\OCc4cc(F)cc(F)c4)c4cc(O)c(OC)cc4[C@H]3CC[C@]12C [CP-DM-4-74, 6-(3,5difluorobenzyloxy)imino-2-methoxyestrone-17-methyloxime]
- IC50 [1, 5]: 1.15 µM
- HASM- Thr pIC25 [1]: 6.59
- HASM- Thr pIC75 [1]: 5.34
- HASM - GM-CSF [4]: 11 ± 8
- pFib - bFGF (Pulmonary fibroblasts): 5 ± 9
- IC50 [2]: 10 µM
